Test results: patent US20230045112A1, “DISULFIRAM AND OTHER REDOX-RELATED COMPOSITIONS FOR BRAIN TUMORS” (Texas Tech University System, priority 2014, published 2023)

Assays:
NQO1 = NQO1 (Homo sapiens, UniProt P15559); test: NQO1 activity inhibition; format: biochemical
From the text: (§1) A tumor-targeted NIR small-molecule dye called NQ-THR, was made and specifically accumulated in cancer cells for tumor NIR imaging and simultaneously trigger tumoricidal oxidative stress by acting as an NQO1-bioactivatable substrate. This […] fluorophore provides sufficient specificity and imaging guidance to promote tumor-specific cell death, which can be used for the cancer treatment as well. NQ-IND, the precursor of NQ-THR is an NQO1 activated prodrug itself, which undergoes redox-cycling to produce ROS in brain tumor cells. The functional groups on NQ-IND are amenable to designing NQO1-activated imaging and therapeutic compounds. ES936 (FIG. 20A) is a highly specific, potent, mechanism-based NQO1 inhibitor (55). Inspired by the structure of ES936, the inventors prepared a compound NQ-IND (FIG. 20B) by removing the inhibitory nitroaryl group. NQ-IND was tested for its activity against NQO1 inhibition and cell viability. […]. On the other hand, NQ-IND attached with the NIR fluorescent dyes can be used to generate a theranostic fluorescent probe NQ-THR with both imaging and therapeutic capabilities.

GBM cell lines = test: Potentiation of TMZ in DMG-treated cells; format: cell-based
From the text: (§2) Synthesis of 2,4-Dimethylene glutaric acid (DMG), an α-ketoglutaric acid (α-KG) mimic for induction of epigenetic modifications: D-2 hydroxyglutarate (D-2HG) effectively replaces the normal metabolite, α-KG in 70% of low-grade pediatric gliomas with IDH mutations. α-KG is a substrate for TET1, TET2 DNA demethylases, and histone demethylases that maintain normal epigenetic homeostasis. D2-HG directly contributes to the CpG-island methylator phenotype (G-CIMP) and MGMT promoter methylation by competing with α-KG and inhibiting the demethylases. As an innovative strategy of understanding the glioma pathology and turning the tide against it, the inventors prepared DMG, a powerful α-KG derivative to replace the natural metabolite in epigenetic demethylase reactions; induction of such therapeutic methylation in non-IDH mutant GBMs was postulated to regress the tumors. […] DMG efficacy in xenografts and MGMT methylation therein are being tested.

TET1, MGMT = test: Effect of DMG on TET1 and MGMT activities; format: cell-based; settings: GBM cell lines
From the text: as §2

MGMT = molecular target: T1, MGMT (Homo sapiens, UniProt P16455); test: Effect of proteasome inhibitor PS-341 on degradation of DSF-modified MGMT in UW228 cells; format: cell-based; design: endogenous in cells; host or cells: UW228, T98G
T1 sequence (P16455 1-207): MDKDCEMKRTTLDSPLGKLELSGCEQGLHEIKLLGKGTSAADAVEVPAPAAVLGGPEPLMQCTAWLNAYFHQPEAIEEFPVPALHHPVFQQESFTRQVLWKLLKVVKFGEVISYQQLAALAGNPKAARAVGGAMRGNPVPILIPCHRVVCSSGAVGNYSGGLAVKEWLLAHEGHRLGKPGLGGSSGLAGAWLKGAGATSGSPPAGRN
From the text: The samples were immunoblotted and probed with MGMT antibodies (right panel). The densitometric quantitation of protein bands on the western blots is shown as a line graph on the left. […] Cell lysates were western blotted for the MGMT protein. […] Kinetics of DNA interstrand crosslinks formed in UW228 cells after treatment with […] BCNU or […] melphalan is shown. […] They were then exposed to BCNU or melphalan. At times specified, the cells were harvested, DNA isolated and the extent of interstrand crosslinking of DNA was determined using the ethidium bromide fluorescence assay. Values are mean+S.D. The results were significant at P<0.05. […] The cells were trypsinized at times indicated and analyzed by flow cytometry.
Since the MGMT inactivated by BG is degraded through ub-proteolysis, it was of interest to investigate the mode of elimination of DSF-modified MGMT protein. Therefore, first, we compared the in vitro degradation of DSF-treated and untreated rMGMT protein in rabbit reticulocyte lysates (RL), which are known to promote the proteasomal degradation. The control and DSF-modified MGMT proteins were incubated with RL in the presence of Mg++, ATP and ubiquitin at 37° C. The reaction mixtures were blotted and probed with MGMT antibodies. […] To show the involvement of the ub-proteolysis in cells a clinically used proteasome inhibitor. […]

[1] = tested on: MGMT inactivated cells and xenografts; test: Antimetabolite cytotoxicity in MGMT inactivated cells and xenografts; format: cell-based
From the text: MGMT performs stoichiometric catalysis to remove mutagenic alkyl groups and dies in the process. […] Inhibition of MGMT by siRNA or 06-benzylguanine led to an S-phase block, perturbed DNA synthesis, and re-replication of the genome.

Cys145 of MGMT = molecular target: T2, Cys145 of MGMT (Homo sapiens, UniProt P16455); test: BG-PEG-biotin probe binding to MGMT; settings: UW228 cell extracts, 20 minutes
T2 construct: hexa-histidine; made in house; host or cells: E. coli
T2 sequence (P16455 1-207): T1 sequence (P16455 1-207)
Protocol: Drug treatments and exposure times are shown in labels. […] Cells were trypsinized at times shown. Levels of MGMT activity and protein were determined in cell extracts. […] BG-PEG-biotin (5 μM) was then added and incubations continued for 15 minutes. The samples were electrophoresed, blotted and probed with Streptavidin-HRP to detect the protein-bound biotin (upper panel). […] Streptavidin-HRP was used to probe the resulting blot (upper panel).
MGMT protein and activity levels were analyzed during the depletion and repletion (FIG. 3B). […] MGMT protein levels as determined by western analyses during the depletion/repletion cycle were consistent with and fully reflected the DNA repair activity profiles (FIG. 3B, left panel).

[2] = tested on: NQO1-proficient A549 tumors; test: NIR imaging of NQO1-proficient tumors in live mice; format: in vivo, nude mice; settings: one mg/kg intravenously
From the text: (§3) Engineering of NQO1 turn-on near-infrared (NIR) fluorophores and theranostic drugs thereof for pediatric brain cancer therapy and multimodality imaging. There is an imperative need for the development of cancer-specific imaging and therapeutic multifunctional or theranostic agents that can allow both imaging and drug delivery. Imaging in the near-infrared (NIR) range of 650-900 nm has been widely used in clinical procedures, because of deep tissue penetration, low autofluorescence, and reduced photon scattering. The inventors developed enzyme-activatable, cell-permeable, non-toxic, and biocompatible ‘turn-on’ NIR fluorescent probes (NIR-ASM, NQ-DCP) that provide accurate detection and visualization of endogenous NQO1 activity both in vitro and an in vivo preclinical model of lung and brain cancers. These fluorophores remain non-fluorescent until cleavage by NQO1 catalysis. In this study, subcutaneous tumors of A549 lung cancer (NQO1-positive) and MDAMB-231 breast cancer (NQO1 negative) were developed in the same animal on opposite flanks.
(§4) The animals were imaged in a IVIS imager at 500-640 nm.

[3] = tested on: NQO1-deficient MDAMB-231 tumors; test: NIR imaging of NQO1-deficient tumors in live mice; format: in vivo, nude mice; settings: one mg/kg intravenously
From the text: as §3, §4

cancer cell lines = test: Cell viability, cancer cell lines (NQ-IND); format: cell-based
From the text: as §1

normal cells = test: Cell viability, normal cell lines (NQ-IND); format: cell-based
From the text: as §1

ROS = test: Intracellular ROS by NQ-IND (DCF-DA fluorescence); format: cell-based
From the text: as §1

UW228 cells = test: Cell cycle analysis (flow cytometry) and apoptosis markers; format: cell-based, human; settings: 100 μM BCNU alone, 24 hours
Protocol: This was followed by 100 μM BCNU. […] After the treatments, cells were allowed to grow for 24 and 48 hours. At each of these time points cells were harvested and fixed in 70% ethanol. The cells were then washed with PBS and re-suspended in the presence of RNase (1 μg/ml) and propidium iodide (PI, 50 μg/ml) for 30 minutes. Cell cycle histograms were generated using a BD Accuri C6 flow cytometer.

Chain of NQO1 (P15559 whole entry): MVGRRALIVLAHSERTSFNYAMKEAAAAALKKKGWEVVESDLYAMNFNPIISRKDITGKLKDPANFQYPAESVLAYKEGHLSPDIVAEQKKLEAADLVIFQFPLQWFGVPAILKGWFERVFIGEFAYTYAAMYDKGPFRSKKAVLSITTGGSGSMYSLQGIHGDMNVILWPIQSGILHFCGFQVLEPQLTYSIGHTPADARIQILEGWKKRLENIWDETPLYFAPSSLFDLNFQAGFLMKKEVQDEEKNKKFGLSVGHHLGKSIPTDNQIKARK

COC1=CC(=O)c2c(c(COc3ccc([N+](=O)[O-])cc3)c(C)n2C)C1=O [ES936]
effect on NQO1 activity (NQO1): completely inhibited the NQO1 activity

C=C(CC(=C)C(=O)O)C(=O)O [DMG, 2,4-Dimethylene glutaric acid]
potentiation of TMZ (GBM cell lines): 6-8 fold
effect on TET1, MGMT activities (TET1, MGMT): curtailed TET1, MGMT activities

CC(C)C[C@H](NC(=O)[C@H](Cc1ccccc1)NC(=O)c1cnccn1)B(O)O [PS341, bortezomib]
decrease of MGMT degradation (MGMT; 10 μM PS341 co-incubation with 50 μM DSF for 6 hours): 20%
reduction in the loss of MGMT protein (MGMT; pretreated 6 hours with 10 μM PS341 followed by 50 μM DSF for 12 hours): > 50%

O=c1[nH]cc(F)c(=O)[nH]1 [5FU]
increase in cytotoxicity in MGMT inactivated cells and xenografts [1]: 10-15 fold

CCN1C(=O)C=CC1=O [NEM, N-ethylmaleimide]
BG-PEG-biotin labeling of MGMT in cell extracts after drug (Cys145 of MGMT): prevented the BG-labeling of the protein

CC1=C(C)C(=O)C(C(C)(C)CC(=O)Nc2ccc(/C=C/C3=CC(=C(C#N)C#N)CC(C)(C)C3)cc2)=C(C)C1=O [NIR-ASM]
time to fluorescent signal in tumors [2]: ≤ 5 min
fluorescent signal in tumors [3]: totally negative after 3 hours

COC1=CC(=O)c2c(c(CO)cn2C)C1=O [NQ-IND]
effect on NQO1 activity (NQO1): did not affect the activity of NQO1
cancer cell proliferation (cancer cell lines): inhibit cancer cell proliferation selectively
effect on normal cells (normal cells): no effect on normal cells
ROS by DCF-DA fluorescence (ROS): generate ROS

O=NN(CCCl)C(=O)NCCCl [BCNU, 1,3-bis-2-chloroethylnitrosourea]
G2/M blockade, % of cells (UW228 cells): 33 % of cells
